Data published in US9023865B2, “Compounds that are ERK inhibitors” (Merck Sharp & Dohme Corp., priority 2011, dated 2015).

The molecules below were run against Active Human ERK2 (hERK2) (Homo sapiens (Human), UniProt P28482) (assay: Active Human ERK2 (hERK2) Activity Assay (IMAP-FP)). Details: phosphorylated active hERK2, 30 μM ATP; average; read-out: ERK 2 Human average IC50.
Type: biochemical
In short: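 Phosphorylation by activated human ERK2 (0.5 nM) at 30 μM ATP, peptide substrate 900 nM unlabeled with 80 nM labeled, proceeds 60 min. IMAP beads stop the reaction; after 60 min equilibration, product is measured by fluorescence polarization.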

Active Human ERK2 (hERK2), sequence (P28482 whole entry): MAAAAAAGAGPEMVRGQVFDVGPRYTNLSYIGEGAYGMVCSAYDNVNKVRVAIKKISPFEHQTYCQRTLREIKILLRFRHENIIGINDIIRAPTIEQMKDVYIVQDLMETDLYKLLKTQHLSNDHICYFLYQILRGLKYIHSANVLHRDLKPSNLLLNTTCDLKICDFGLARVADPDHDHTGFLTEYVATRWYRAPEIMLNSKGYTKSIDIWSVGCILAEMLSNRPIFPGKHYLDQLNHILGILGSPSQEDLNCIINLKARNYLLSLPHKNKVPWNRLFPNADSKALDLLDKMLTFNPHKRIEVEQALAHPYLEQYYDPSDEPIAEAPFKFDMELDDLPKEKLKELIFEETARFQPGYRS

Compound	IC50 [nM]
Cc1cc(-c2n[nH]c3cc(NC(=O)N[C@H]4CCOc5cc(F)ccc54)ncc23)ccn1 [Example 276, 1-[(4S)-7-fluoro-3,4-dihydro-2H-chromen-4-yl]-3-[3-(2-methylpyridin-4-yl)-1H-pyrazolo[4,3-c]pyridin-6-yl]urea]	14.7
Cc1cc(-c2n[nH]c3cc(NC(=O)N4CC(c5cccc(F)c5)C4)ncc23)ccn1 [Example 278]	43.4
Cc1cc(-c2n[nH]c3cc(NC(=O)N[C@H](c4ccc(F)cc4)C(F)(F)F)ncc23)ccn1 [Example 279]	113
Cc1cc(-c2n[nH]c3cc(NC(=O)N[C@@H](c4ccc(F)cc4)C(F)(F)F)ncc23)ccn1 [Example 280]	9.83
C[C@@H](NC(=O)Nc1cc2[nH]nc(-c3ccnc(N4CCOCC4)c3)c2cn1)c1ccc(F)cc1 [Example 281]	1.91
Cc1cc(-c2n[nH]c3cc(NC(=O)NC4CCc5cc(Cl)ccc54)ncc23)ccn1 (stereo not drawn) [Example 283]	86
Cc1cc(-c2n[nH]c3cc(NC(=O)N[C@H]4CCCOc5ccccc54)ncc23)ccn1 [Example 284]	8.28
Cc1cc(-c2n[nH]c3cc(NC(=O)NC4CCOc5cc(F)ccc54)ncc23)ccn1 (stereo not drawn) [Example 286]	9.59
Cc1cc(-c2n[nH]c3cc(NC(=O)N4CCN(c5ccc(F)cc5)C[C@H]4C)ncc23)ccn1 [Example 288]	2290
COCCn1cc(-c2n[nH]c3cc(NC(=O)N[C@H](C)c4ccccc4)ncc23)cn1 [Example 289]	28
C[C@@H](NC(=O)Nc1cc2[nH]nc(-c3cnc(-n4cccn4)nc3)c2cn1)c1ccccc1 [Example 291]	4.44
C[C@@H](NC(=O)Nc1cc2[nH]nc(-c3cnc(N(C)S(C)(=O)=O)nc3)c2cn1)c1ccccc1 [Example 292]	3.6
COCCN(C)c1ncc(-c2n[nH]c3cc(NC(=O)N[C@H](C)c4ccccc4)ncc23)cn1 [Example 293]	24.3
O=C(Nc1cc2[nH]nc(C3CC3)c2cn1)N[C@@H]1CCCOc2ccccc21 [Example 295]	2.67
COC[C@@H](NC(=O)Nc1cc2[nH]nc(-c3ccc(C#N)nc3)c2cn1)c1ccc(F)cc1 [Example 303]	3.21
COC[C@@H](NC(=O)Nc1cc2[nH]nc(-c3ccnc(C#N)c3)c2cn1)c1ccc(F)cc1 [Example 304]	1.75
COC[C@@H](NC(=O)Nc1cc2[nH]nc(-c3ccc(C(F)(F)F)nc3)c2cn1)c1ccc(F)cc1 [Example 305]	24.7
Cc1cncc(-c2n[nH]c3cc(NC(=O)N[C@H](C)c4ccc(F)cc4)ncc23)c1 [Example 308]	1.8
CC(C)CN(C)c1ncc(-c2n[nH]c3cc(NC(=O)N[C@H](C)c4ccc(F)cc4)ncc23)cn1 [Example 309]	44.5
COc1cc(-c2n[nH]c3cc(NC(=O)N[C@H](C)c4ccc(F)cc4)ncc23)ccn1 [Example 310]	6.52
CCS(=O)(=O)c1ccc(-c2n[nH]c3cc(NC(=O)N[C@H](C)c4ccc(F)cc4)ncc23)cn1 [Example 311]	26.2
Cc1cc(-c2n[nH]c3cc(NC(=O)NCc4cccc(C)n4)ncc23)ccn1 [Example 315]	1.93

Compound	IC50 [nM]
CN1CC[C@@H](NC(=O)Nc2cc3[nH]nc(-c4ccc(F)cc4)c3cn2)C1 [Example 316]	1.84
CO[C@@H]1CN(C)C[C@H]1NC(=O)Nc1cc2[nH]nc(-c3ccc(F)cc3)c2cn1 [Example 318]	30.2
CCO[C@@H]1CN(C)C[C@H]1NC(=O)Nc1cc2[nH]nc(-c3ccc(F)cc3)c2cn1 [Example 320]	25.4
Cc1cc(-c2n[nH]c3cc(NC(=O)N[C@@H]4CNC[C@H]4F)ncc23)ccn1 [Example 325]	3.96
Cc1cc(-c2n[nH]c3cc(NC(=O)N[C@@H]4CCN(CC(F)(F)F)C4)ncc23)ccn1 [Example 326]	3.54
Cc1cc(-c2n[nH]c3cc(NC(=O)N[C@@H]4CN(C)C[C@H]4F)ncc23)ccn1 [Example 329, 1-((3R,4R)-4-fluoro-1-methylpyrrolidin-3-yl)-3-(3-(2-methylpyridin-4-yl)-1H-pyrazolo[4,3-c]pyridin-6-yl)urea]	56.5
Cc1cc(-c2n[nH]c3cc(NC(=O)N[C@@H]4CN(CC(F)(F)F)C[C@H]4c4ccccc4)ncc23)ccn1 [Example 330]	3.06
Cc1cc(-c2n[nH]c3cc(NC(=O)N[C@@H](CN)c4ccccc4)ncc23)ccn1 [Example 331]	29.1
Cc1cc(-c2n[nH]c3cc(NC(=O)NCc4cccc(-c5ccccc5)c4)ncc23)ccn1 [Example 333]	3.38
Cc1ccc(C(C)NC(=O)Nc2cc3[nH]nc(-c4ccnc(C)c4)c3cn2)nc1 (stereo not drawn) [Example 339]	6.08
Cc1cc(-c2n[nH]c3cc(NC(=O)N[C@@H](C)c4ccc(Cl)c(C)c4)ncc23)ccn1 [Example 340]	723
Cc1cc(-c2n[nH]c3cc(NC(=O)N[C@H](C)c4ccc(Cl)c(C)c4)ncc23)ccn1 [Example 341]	2.91
Cc1ccc(C2(NC(=O)Nc3cc4[nH]nc(-c5ccnc(C)c5)c4cn3)CC2)cc1 [Example 342]	40.9
Cc1cc(-c2n[nH]c3cc(NC(=O)NC4(c5ccc(F)cc5)CC4)ncc23)ccn1 [Example 343]	18.7
CCC(NC(=O)Nc1cc2[nH]nc(-c3ccnc(C)c3)c2cn1)c1ccc(Cl)cc1 (stereo not drawn) [Example 344]	3.15
Cc1cc(-c2n[nH]c3cc(NC(=O)N[C@@H](C)c4ccccn4)ncc23)ccn1 [Example 345]	5.37
Cc1cc(-c2n[nH]c3cc(NC(=O)N[C@H](CO)c4ccc(F)cc4)ncc23)ccn1 [Example 346]	88.2
COCC(NC(=O)Nc1cc2[nH]nc(-c3ccnc(C)c3)c2cn1)c1ccccn1 (stereo not drawn) [Example 348]	2.16
Cc1cc(-c2n[nH]c3cc(NC(=O)NC(C)c4ncccc4C)ncc23)ccn1 (stereo not drawn) [Example 349]	6.57
Cc1cc(-c2n[nH]c3cc(NC(=O)NC4(c5ccccc5)CC4)ncc23)ccn1 [Example 350]	10.6
Cc1cc(-c2n[nH]c3cc(NC(=O)NC4(c5ccccn5)CC4)ncc23)ccn1 [Example 351]	91.9
Cc1cc(-c2n[nH]c3cc(NC(=O)NC4(c5ccncc5)CCC4)ncc23)ccn1 [Example 352]	30.2

Further molecules by falling IC50, results first:

IC50 [nM]	Compound
1.75	COC[C@@H](NC(=O)Nc1cc2[nH]nc(-c3ccc(-n4ccnn4)cc3)c2cn1)c1ccc(F)cc1 [Example 307]
1.57	Cc1cc(-c2n[nH]c3cc(NC(=O)N[C@H]4CN(C)C[C@@H]4F)ncc23)ccn1 [Example 328, 1-((3S,4S)-4-fluoro-1-methylpyrrolidin-3-yl)-3-(3-(2-methylpyridin-4-yl)-1H-pyrazolo[4,3-c]pyridin-6-yl)urea]
1.56	Cc1cc(-c2n[nH]c3cc(NC(=O)NC(CCN(C)C)c4ccccn4)ncc23)ccn1 (stereo not drawn) [Example 353]
1.4	Cc1cc(-c2n[nH]c3cc(NC(=O)Nc4noc5ccccc45)ncc23)ccn1 [Example 337]
1.35	Cc1cc(-c2n[nH]c3cc(NC(=O)NC4CCN(S(C)(=O)=O)c5ccccc54)ncc23)ccn1 (stereo not drawn) [Example 277]
1.34	COC[C@@H](NC(=O)Nc1cc2[nH]nc(-c3ccn4ncnc4c3)c2cn1)c1ccc(F)cc1 [Example 300]
1.34	CCC(NC(=O)Nc1cc2[nH]nc(-c3ccnc(C)c3)c2cn1)c1ccccn1 (stereo not drawn) [Example 347]
1.34	Cc1cc(-c2n[nH]c3cc(NC(=O)NC4c5ccccc5CC4O)ncc23)ccn1 (stereo not drawn) [Example 332]
1.17	CN1CC[C@H](CNC(=O)Nc2cc3[nH]nc(-c4ccc(F)cc4)c3cn2)C1 [Example 322]
1.17	COC[C@@H](NC(=O)Nc1cc2[nH]nc(-c3ccnc(N4CCOCC4)c3)c2cn1)c1ccc(F)cc1 [Example 298]
1.13	CO[C@H]1CN(C)C[C@@H]1NC(=O)Nc1cc2[nH]nc(-c3ccc(F)cc3)c2cn1 [Example 317]
1.05	COC[C@@H](NC(=O)Nc1cc2[nH]nc(-c3ccc(N4CCOCC4)nc3)c2cn1)c1ccc(F)cc1 [Example 297]
1.03	Cc1cc(-c2n[nH]c3cc(NC(=O)NC(CO)c4cccnc4)ncc23)ccn1 (stereo not drawn) [Example 336]
0.998	Cc1cc(-c2n[nH]c3cc(NC(=O)NC(C)c4ccc(F)c(F)c4)ncc23)ccn1 (stereo not drawn) [Example 338]
0.986	CN1CC[C@@H](CNC(=O)Nc2cc3[nH]nc(-c4ccc(F)cc4)c3cn2)C1 [Example 321]
0.88	COC[C@@H](NC(=O)Nc1cc2[nH]nc(-c3cnc(OC)nc3)c2cn1)c1ccccc1 [Example 314]
0.81	COC[C@@H](NC(=O)Nc1cc2[nH]nc(-c3ccnc(N4CCNCC4)c3)c2cn1)c1ccc(F)cc1 [Example 306]
0.751	COc1ncc(-c2n[nH]c3cc(NC(=O)N[C@@H]4CCCOc5ccccc54)ncc23)cn1 [Example 312]
0.717	COc1ncc(-c2n[nH]c3cc(NC(=O)N[C@H](C)c4ccccc4)ncc23)cn1 [Example 313]
0.665	C[C@@H](NC(=O)Nc1cc2[nH]nc(-c3ccn4ncnc4c3)c2cn1)c1ccccc1 [Example 294]
0.562	COC[C@@H](NC(=O)Nc1cc2[nH]nc(-c3ccc4c(c3)nnn4C)c2cn1)c1ccc(F)cc1 [Example 301]
0.521	CCO[C@H]1CN(C)C[C@@H]1NC(=O)Nc1cc2[nH]nc(-c3ccc(F)cc3)c2cn1 [Example 319]
0.474	Cc1cc(-c2n[nH]c3cc(NC(=O)NC(CF)c4ccccc4)ncc23)ccn1 (stereo not drawn) [Example 354]
0.448	Cc1cc(-c2n[nH]c3cc(NC(=O)N[C@H]4CCN(CC(F)(F)F)C4)ncc23)ccn1 [Example 327]
0.382	Cc1cc(-c2n[nH]c3cc(NC(=O)N[C@@H]4CCCOc5ccccc54)ncc23)ccn1 [Example 285]
0.366	C[C@@H](NC(=O)Nc1cc2[nH]nc(-c3cnc(O)nc3)c2cn1)c1ccccc1 [Example 290]
0.333	Cc1cc(-c2n[nH]c3cc(NC(=O)NC(CCO)c4ccccc4)ncc23)ccn1 (stereo not drawn) [Example 334]
0.304	C[C@@H](NC(=O)Nc1cc2[nH]nc(-c3ccc(=O)[nH]c3)c2cn1)c1ccc(F)cc1 [Example 282]
